One assay addresses T1, hMCR-4 (Homo sapiens, UniProt P32245).
T1 construct: expressed in transfected cells; host or cells: HEK-293 cells (membrane homogenates)
Put plainly: Competitive inhibition binding assay using [I125]-NDP-α-MSH, hMCR-4 membranes. The following applies: HEK-293 membranes, recombinant human MCR-4, [I125]-NDP-α-MSH; read-out: MC-4 Ki (average). The method, then:
(§1) A competitive inhibition binding assay was performed using membrane homogenates prepared from HEK-293 cells that express recombinant hMCR-1a or hMCR-4 (in each instance where the h prefix refers to human), or alternatively membrane homogenates from B16-F10 mouse melanoma cells containing endogenous murine MCR-1. In the examples that follow, all MCR-1 and MCR-4 values are for human recombinant receptors, unless otherwise noted. Assays were performed in 96 well polypropylene round-bottom plates (VWR catalog number 12777-030). Membrane homogenates were incubated with 0.1 nM [I^125]-NDP-α-MSH (Perkin Elmer) and increasing concentrations of test peptides of the present invention in buffer containing 25 mM HEPES buffer (pH 7.5) with 100 mM NaCl, 2 mM CaCl2, 2 mM MgCl2, 0.3 mM 1,10-phenanthroline, and 0.2% bovine serum albumin. After incubation for 90 minutes at 37° C., the assay mixture was filtered onto GF/B Unifilter plates (Perkin-Elmer catalog number 6005177) and washed with 3 mL of ice-cold buffer per well. Filters were air dried and 35 μL of scintillation cocktail added to each well. Plates were counted in a Microbeta counter for bound radioactivity. Non-specific binding was measured by inhibition of binding of [I^125]-NDP-α-MSH in the presence of 1 μM NDP-α-MSH. Maximal specific binding (100%) was defined as the difference in radioactivity (cpm) bound to cell membranes in the absence and presence of 1 μM NDP-α-MSH. Each assay was conducted in duplicate and the actual mean values are described, with results less than 0% reported as 0%. Ki values for peptides of the present invention were determined using Graph-Pad PRISM® curve-fitting software.
(§2) Peptides of the following structures were synthesized and purified as described in Section 5 above, with the resulting peptide having the structure depicted. After synthesis and purification, the foregoing peptide was tested as described in Section 8 above, and average MCR-1 and MCR-4 Ki values determined as indicated. All Ki values were determined using [I^125]-NDP-α-MSH. All results are expressed in nM except for Emax values, which are percentage values.

For another assay, the target named is T2, hMCR-1a (Homo sapiens, UniProt Q01726).
T2 construct: expressed in transfected cells; host or cells: HEK-293 cells (membrane homogenates)
T2 sequence (Q01726 whole entry): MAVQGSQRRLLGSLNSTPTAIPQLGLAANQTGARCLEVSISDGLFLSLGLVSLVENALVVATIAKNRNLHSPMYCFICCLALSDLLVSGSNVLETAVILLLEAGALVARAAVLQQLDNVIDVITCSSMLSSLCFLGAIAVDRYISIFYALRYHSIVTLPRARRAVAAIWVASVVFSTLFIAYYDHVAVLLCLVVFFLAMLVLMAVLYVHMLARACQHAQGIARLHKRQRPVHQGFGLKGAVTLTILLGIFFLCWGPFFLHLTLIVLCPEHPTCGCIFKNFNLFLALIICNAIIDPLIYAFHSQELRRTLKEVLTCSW
Put plainly: Competitive inhibition binding assay using [I125]-NDP-α-MSH, hMCR-1a membranes. The following applies: HEK-293 membranes, recombinant human MCR-1, [I125]-NDP-α-MSH; read-out: MC-1 Ki (average). On the procedure: as §1, §2

A further assay deals with T3, hMCR-1 (Homo sapiens, UniProt Q01726).
T3 construct: endogenous in cells; host or cells: HBL human melanoma cell line
T3 sequence (Q01726 whole entry): as above
The experiment in a line: Assay for agonist activity: cAMP accumulation in HBL human melanoma cells. In kind it is cell-based. Particulars: for Emax: compared to reference agonist NDP-α-MSH, read-out: MC-1 Emax (average; cAMP HBL); for EC50: read-out: MC-1 EC50 (average; cAMP HBL).
From the text: Accumulation of intracellular cAMP was examined as a measure of the ability of the peptides of the present invention to elicit a functional response in a human melanoma cell line, HBL, that express hMCR-1 (see Kang, L., et al., “A selective small molecule agonist of melanocortin-1 receptor inhibits lipopolysaccharide-induced cytokine accumulation and leukocyte infiltration in mice,” J. Leuk. Biol. 80:897-904 (2006)) or HEK-293 cells that express hMCR-4. Confluent HBL cells that express hMCR-1 or HEK-293 cells that express recombinant hMCR-4 were detached from culture plates by incubation in enzyme-free cell dissociation buffer. Dispersed cells were suspended in Earle's Balanced Salt Solution containing 10 mM HEPES (pH 7.5), 1 mM MgCl2, 1 mM glutamine, 0.5% albumin and 0.3 mM 3-isobutyl-1-methyl-xanthine (IBMX), a phosphodiesterase inhibitor. The cells were plated in 96-well plates at a density of 0.4×10^5 cells per well for HBL cells and 0.5×10^5 cells per well for HEK-293 cells and pre-incubated for 10 minutes. Cells were exposed for 15 minutes at 37° C. to peptides of the present invention dissolved in DMSO (final DMSO concentration of 1%) at a concentration range of 0.05-5000 nM in a total assay volume of 200 μL. NDP-α-MSH was used as the reference agonist. cAMP levels were determined by an HTRF® cAMP cell-based assay system from Cisbio Bioassays utilizing cryptate-labeled anti-cAMP and d2-labeled cAMP, with plates read on a Perkin-Elmer Victor plate reader at […]. Data analysis was performed by nonlinear regression analysis with Graph-Pad PRISM® software. Maximum efficacy (Emax) values were determined for each test peptide of the present invention, compared to that achieved by the reference melanocortin agonist NDP-α-MSH.
as §2

Where a SMILES comes first, the peptide text is derived from it. [ ]: non-standard residue; d: D form. Nle = CCCC[C@H](N)C(=O)O; Dab = NCC[C@H](N)C(=O)O; Sar = CNCC(=O)O

The text below walks through data of US10106578B2, “Melanocortin-1 receptor-specific linear peptides” (Palatin Technologies, Inc., priority 2012, dated 2018).

The term Ki denotes a dissociation constant, usually derived from enzyme kinetics or from competition with a known ligand. In general, Emax refers to the size of the effect at its maximum, as opposed to the concentration needed. A word on the EC50: it is the concentration that produces a half-maximal response.

T1 sequence (P32245 whole entry): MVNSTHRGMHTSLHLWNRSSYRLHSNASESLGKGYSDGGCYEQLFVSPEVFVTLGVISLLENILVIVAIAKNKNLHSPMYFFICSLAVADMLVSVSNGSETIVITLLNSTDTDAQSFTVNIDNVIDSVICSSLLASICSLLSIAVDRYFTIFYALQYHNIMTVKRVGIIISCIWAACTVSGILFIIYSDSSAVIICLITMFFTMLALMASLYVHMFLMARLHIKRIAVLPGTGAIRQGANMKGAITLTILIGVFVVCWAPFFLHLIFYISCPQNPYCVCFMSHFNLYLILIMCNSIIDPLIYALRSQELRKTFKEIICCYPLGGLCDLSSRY

For `CCCC[C@H](NC(C)=O)C(=O)N[C@@H](C)C(=O)N[C@@H](Cc1c[nH]cn1)C(=O)N[C@H](Cc1ccccc1)C(=O)N[C@@H](CCCNC(=N)N)C(=O)N1CCC[C@@H]1C(=O)N[C@@H](Cc1c[nH]c2ccccc12)C(N)=O` [Example 9.11, Ac-Nle-Ala-His-D-Phe-Arg-D-Pro-Trp-NH2] (Ac-[Nle]AH[dF]R[dP]W-NH2), the Ki at hMCR-4 amounted to 6200 nM. Further, the Ki on hMCR-1a was 14 nM. Further, at hMCR-1, the Emax was found to be 70% and the EC50 was 1 nM.

For the compound `CCCC[C@H](NC(C)=O)C(=O)N[C@H](Cc1ccccc1)C(=O)N[C@@H](CCCNC(=N)N)C(=O)N[C@@H](C)C(=O)N[C@@H](Cc1c[nH]c2ccccc12)C(N)=O` [Example 9.15, Ac-Nle-D-Phe-Arg-Ala-Trp-NH2] (Ac-[Nle][dF]RAW-NH2), the Ki at hMCR-4 amounted to 7120 nM; at hMCR-1a, 1290 nM. Further, on hMCR-1, the Emax was 67%.

With `CCCC[C@H](NC(C)=O)C(=O)N[C@@H](C)C(=O)N[C@@H](Cc1c[nH]cn1)C(=O)N[C@H](Cc1ccccc1)C(=O)N[C@@H](CCCNC(=N)N)C(=O)N(C)CC(=O)N[C@@H](Cc1c[nH]c2ccccc12)C(N)=O` [Example 9.4, Ac-Nle-Ala-His-D-Phe-Arg-Sar-Trp-NH2] (Ac-[Nle]AH[dF]R[Sar]W-NH2), the Ki on hMCR-4 was determined as 870 nM; at hMCR-1a it was 2 nM. Besides, the Emax on hMCR-1 came out at 77%. Besides, the EC50 on hMCR-1 amounted to 0.17 nM.

`CCCC[C@H](NC(C)=O)C(=O)N[C@@H](C)C(=O)N[C@@H](Cc1c[nH]cn1)C(=O)N[C@H](Cc1ccccc1)C(=O)N[C@@H](CCCNC(=N)N)C(=O)N1CCC[C@H]1C(=O)N[C@H](Cc1c[nH]c2ccccc12)C(N)=O` [Example 9.13, Ac-Nle-Ala-His-D-Phe-Arg-Pro-D-Trp-NH2] (Ac-[Nle]AH[dF]RP[dW]-NH2): the Ki on hMCR-4 was determined as 650 nM. The Ki at hMCR-1a was 2 nM. Further, at hMCR-1, the Emax is 90% and the EC50 is 0.17 nM.

On to `CCCC[C@H](NC(C)=O)C(=O)N[C@@H](C)C(=O)N[C@@H](CCN)C(=O)N[C@H](Cc1ccccc1)C(=O)N[C@@H](CCCNC(=N)N)C(=O)N[C@@H](C)C(=O)N[C@@H](Cc1c[nH]c2ccccc12)C(N)=O` [Example 9.22, Ac-Nle-Ala-Dab-D-Phe-Arg-Ala-Trp-NH2] (Ac-[Nle]A[Dab][dF]RAW-NH2), for which the Ki stood at 7850 nM at hMCR-4 and 2 nM at hMCR-1a. For the same compound, at hMCR-1, the Emax worked out at 101%.
